Patent US20060217418A1, “Substituted alkyl amido piperidines” (priority 2001, published 2006)

Columns and labels:
rat MCH1 receptor = biological target: T1, rat MCH1 receptor (Rattus norvegicus, UniProt P97639); experiment: Radioligand binding assay at cloned rat MCH1 receptor ([3H]Compound A); settings: cloned rat MCH1, Peakr293 cell membranes, 0.08 nM [3H]Compound A, 25° C., 90 minutes; read-out: Ki(MCH-1)
T1 construct: operatively linked to DNA encoding the rat MCH1 receptor so as to permit expression thereof; expressed in transfected cells; host or cells: Human embryonic kidney Peak rapid 293 (Peakr293) cells, transient calcium phosphate transfection, membranes
T1 sequence (P97639 whole entry): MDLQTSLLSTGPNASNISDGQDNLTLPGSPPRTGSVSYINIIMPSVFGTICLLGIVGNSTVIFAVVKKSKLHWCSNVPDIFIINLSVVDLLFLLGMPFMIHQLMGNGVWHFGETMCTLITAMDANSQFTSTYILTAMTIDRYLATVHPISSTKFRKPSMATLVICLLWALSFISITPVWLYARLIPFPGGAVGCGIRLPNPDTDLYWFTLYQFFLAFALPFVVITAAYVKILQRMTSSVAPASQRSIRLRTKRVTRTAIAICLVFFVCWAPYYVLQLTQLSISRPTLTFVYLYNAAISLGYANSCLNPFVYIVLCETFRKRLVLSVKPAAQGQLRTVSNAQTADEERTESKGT

Sprague Dawley rats = experiment: Continuous Slow Transvesicular Infusion (CSTI) rat model; assay type: in vivo; set-up: key: F: Produced an increase in bladder capacity in rats relative to baseline capacity; settings: intragastric administration, bladder capacity relative to baseline capacity
Procedure: Male Sprague Dawley rats weighing approximately 300 g were used for the study. Rats were anaesthetized with pentobarbitone sodium (50 mg/kg, i.p). Through a median abdominal incision, bladder was exposed and a polyethylene cannula (PE 50) was introduced into the bladder through a small cut on the dome of the bladder and the cannula was secured with a purse string suture. The other end of the cannula was exteriorized subcutaneously at the dorsal neck area. Similarly, another cannula (PE 50) was introduced into the stomach through a paramedian abdominal incision with the free end exteriorized subcutaneously to the neck region. The surgical wounds were closed with silk 4-0 suture and the animal was allowed to recover with appropriate post surgical care. On the following day, the animal was placed in a rat restrainer. The open end of the bladder-cannula was connected to a pressure transducer as well as infusion pump through a three-way stopcock. The bladder voiding cycles were initiated by continuous infusion of normal saline at the rate of 100 μl/min. The repetitive voiding contractions were recorded on a Power Lab on-line data acquisition software. After recording the basal voiding pattern for an hour, the test drug or vehicle was administered directly into stomach through the intragastric catheter and the voiding cycles were monitored for 5 hours. Micturition pressure and frequency were calculated before and after the treatment (at every 30 min interval) for each animal. Bladder capacity was calculated from the micturition frequency, based on the constant infusion of 100 μl/min. The effect of the test drug was expressed as a percentage of basal, pre-drug bladder capacity. WAY 100635 was used as positive control for comparison.

[1] = in vivo; cited from earlier work

Row | Ki (rat MCH1 receptor) [nM] | Structure (SMILES) | CSTI (Sprague Dawley rats) | food intake induced by the intracerebroventricular application of MCH [1]
1 | 1.3 | CC(C)C(=O)Nc1cccc(C2CCN(CCCNC(=O)C(c3ccc(F)cc3)c3ccc(F)cc3)CC2)c1 [Example 1, N-{3-[1-(3-{[BIS(4-FLUOROPHENYL)ACETYL]AMINO}PROPYL)-4-PIPERIDINYL] PHENYL}-2-METHYLPROPANAMIDE] | F | –
2 | 2.5 | CC(=O)Nc1cccc(C2CCN(CCCNC(=O)C(c3ccccc3)c3ccccc3)CC2)c1 [Example 3, N-(3-{4-[3-(acetylamino)phenyl]-piperidinyl}propyl)-2,2-diphenylacetamide] | F | –
3 | 11.7 | CC(C)C(=O)Nc1cccc(C2CCN(CCCNC(=O)C(C)(C)c3ccc(Cl)cc3)CC2)c1 [Example 8, 2-(4-CHLOROPHENYL)-N-(3-{4-[3-(ISOBUTYRYLAMINO)PHENYL]-1-PIPERIDINYL} PROPYL)-2-METHYLPROPANAMIDE] | F | –
4 | 2.3 | CC(C)C(=O)Nc1cccc(C2CCN(CCCNC(=O)C(c3ccc(F)cc3)c3ccc(F)cc3)CC2)n1 [Example 29] | F | –
5 | 0.6 | Cc1ccc(NC(=O)C(C)C)cc1C1CCN(CCCNC(=O)C(c2ccc(F)cc2)c2ccc(F)cc2)CC1 [Example 32] | F | –
6 | 0.4 | CC(C)C(=O)Nc1ccc(F)c(C2CCN(CCCNC(=O)C(c3ccc(F)cc3)c3ccc(F)cc3)CC2)c1 [Example 35, N-{3-[1-(3-{[bis(4-fluorophenyl)acetyl]amino}propyl)-4-piperidinyl]-4-fluorophenyl}-2-methylpropanamide] | F | –
7 | 14.6 | Cc1ccc(NC(=O)C(C)C)cc1C1CCN(CCCNC(=O)[C@H](C)c2ccccc2)CC1 [Example 164, 2-methyl-N-{4-methyl-3-[1-(3-{[(2R)-2-phenylpropanoyl]amino}propyl)-4-piperidinyl]phenyl} propanamide] | – | –
8 | 1.1 | CC(C)C(=O)Nc1cc(C2CCN(CCCNC(=O)C(c3ccc(F)cc3)c3ccc(F)cc3)CC2)c(F)cc1F [Example 165, N-{5-[1-(3-{[bis(4-fluorophenyl)acetyl]amino}propyl)-4-piperidinyl]-2,4-difluorophenyl}-2-methylpropanamide] | – | –
9 | 5.7 | Cc1ccc(NC(=O)C(C)C)cc1C1CCN(CCCNC(=O)[C@@H](C)c2ccc(Cl)cc2)CC1 [Example 166, (2S)-2-(4-chlorophenyl)-N-(3-{4-[5-(isobutyrylamino)-2-methylphenyl]-1-piperidinyl}propyl) propanamide] | – | –
10 | 18.7 | Cc1ccc(NC(=O)C(C)C)cc1C1CCN(CCCNC(=O)[C@H](C)c2ccc(Cl)cc2)CC1 [Example 167] | – | –
11 | 12.1 | Cc1ccc(NC(=O)C(C)C)cc1C1CCN(CCCNC(=O)[C@@H](C)c2ccc(F)cc2)CC1 [Example 168, (2S)-2-(4-fluorophenyl)-N-(3-{4-[5-(isobutyrylamino)-2-methylphenyl]-1-piperidinyl}propyl) propanamide] | – | –
12 | 35.9 | Cc1ccc(NC(=O)C(C)C)cc1C1CCN(CCCNC(=O)[C@H](C)c2ccc(F)cc2)CC1 [Example 169, (2R)-2-(4-fluorophenyl)-N-(3-{4-[5-(isobutyrylamino)-2-methylphenyl]-1-piperidinyl}propyl) propanamide] | – | –
13 | 19.1 | CC(C)C(=O)Nc1cncc(C2CCN(CCCNC(=O)C(c3ccccc3)c3ccccc3)CC2)c1 [Example 170, N-[5-(1-{3-[(diphenylacetyl)amino]propyl}-4-piperidinyl)-3-pyridinyl]-2-methyl propanamide] | – | –
14 | 9.1 | CC(C)C(=O)Nc1c(F)cc(F)c(C2CCN(CCCNC(=O)C(c3ccccc3)c3ccccc3)CC2)c1F [Example 171, N-[3-(1-{3-[(diphenylacetyl)amino]propyl}-4-piperidinyl)-2,4,6-trifluorophenyl]-2-methylpropanamide] | – | –
15 | 2.5 | CC(C)C(=O)Nc1cncc(C2CCN(CCCNC(=O)C(c3ccc(F)cc3)c3ccc(F)cc3)CC2)c1 [Example 172, N-{5-[1-(3-{[bis(4-fluorophenyl)acetyl]amino}propyl)-4-piperidinyl]-3-pyridinyl}-2-methylpropanamide] | – | –
16 | 2.5 | CC(C)C(=O)Nc1c(F)cc(F)c(C2CCN(CCCNC(=O)C(c3ccc(F)cc3)c3ccc(F)cc3)CC2)c1F [Example 173, N-{3-[1-(3-{[bis(4-fluorophenyl)acetyl]amino}propyl)-4-piperidinyl]-2,4,6-trifluorophenyl}-2-methylpropanamide] | – | –
17 | 24.7 | Cc1ccc(NC(=O)C(C)C)cc1C1CCN(CCCNC(=O)Cc2ccc(F)cc2)CC1 [Example 175, N-{3-[1-(3-{[(4-fluorophenyl)acetyl]amino}propyl)-4-piperidinyl]-4-methylphenyl}-2-methyl propanamide] | – | –
18 | – | CN(C)CC1CCc2cc(NC(=O)c3ccc(-c4ccc(F)cc4)cc3)ccc2C1 (stereo not drawn) [Example T-226296] | – | inhibit food intake

Row | Structure (SMILES) | Ki (rat MCH1 receptor) [nM] | CSTI (Sprague Dawley rats) | food intake induced by the intracerebroventricular application of MCH [1]
19 | Cc1ccc(NC(=O)C(C)C)cc1C1CCN(CCCNC(=O)C(c2ccccc2)c2ccccc2)CC1 [Example 4] | 2.5 | F | –
20 | CC(C)C(=O)Nc1cccc(C2CCN(CCCNC(=O)C(c3ccccc3)c3ccccc3)CC2)n1 [Example 6] | 5.6 | F | –
21 | CC(C)C(=O)Nc1ccc(F)c(C2CCN(CCCNC(=O)C(c3ccccc3)c3ccccc3)CC2)c1 [Example 24] | 4.7 | F | –
